Assay results from patent publication US11530221B2, “Pyrimido[4,5-d]pyrimidin-2-one derivatives as protein kinase inhibitors” (KOREA INSTITUTE OF SCIENCE AND TECHNOLOGY, priority 2019, dated 2022).
Where two headings read alike, the source gives them in different places. Square brackets hold non-standard residues; d marks the D form. Peptide text beside a SMILES is read from it. * marks the point of attachment. X1 = Cc1ccc(Nc2ncc3c(n2)N(C)C(=O)N(c2cc(C(=O)*)ccc2C)C3)cn1; Pip = O=C(O)[C@@H]1CCCCN1; Ac3c = NC1(C(=O)O)CC1; Aib = CC(C)(N)C(=O)O

Legend:
LCK = LCK (Homo sapiens, UniProt P06239); test: IC50 inhibitory activity against LCK kinase; assay type: biochemical
LCK, sequence (P06239 whole entry): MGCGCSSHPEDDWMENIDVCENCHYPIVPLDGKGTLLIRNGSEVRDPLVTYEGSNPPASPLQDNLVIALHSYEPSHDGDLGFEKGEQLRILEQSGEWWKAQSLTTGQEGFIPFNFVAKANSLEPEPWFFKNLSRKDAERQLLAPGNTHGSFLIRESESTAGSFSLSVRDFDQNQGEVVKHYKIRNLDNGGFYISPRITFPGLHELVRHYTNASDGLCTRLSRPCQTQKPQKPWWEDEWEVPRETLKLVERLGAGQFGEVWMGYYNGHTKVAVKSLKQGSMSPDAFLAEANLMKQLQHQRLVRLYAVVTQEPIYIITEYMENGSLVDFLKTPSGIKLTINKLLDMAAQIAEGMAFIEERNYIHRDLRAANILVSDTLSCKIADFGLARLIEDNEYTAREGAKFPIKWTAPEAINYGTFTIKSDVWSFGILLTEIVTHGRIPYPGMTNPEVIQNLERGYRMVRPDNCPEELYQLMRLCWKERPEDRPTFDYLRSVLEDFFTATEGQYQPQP
Experimental: (§1) IC50 values were calculated by measuring the inhibitory activity against LCK, c-Src, p38a/MAPK14, ABL1, DDR1 and FGR kinases of the compounds of the present invention.

c-Src = c-Src (Homo sapiens, UniProt P12931); test: IC50 inhibitory activity against c-Src kinase; assay type: biochemical
c-Src, sequence (P12931 whole entry): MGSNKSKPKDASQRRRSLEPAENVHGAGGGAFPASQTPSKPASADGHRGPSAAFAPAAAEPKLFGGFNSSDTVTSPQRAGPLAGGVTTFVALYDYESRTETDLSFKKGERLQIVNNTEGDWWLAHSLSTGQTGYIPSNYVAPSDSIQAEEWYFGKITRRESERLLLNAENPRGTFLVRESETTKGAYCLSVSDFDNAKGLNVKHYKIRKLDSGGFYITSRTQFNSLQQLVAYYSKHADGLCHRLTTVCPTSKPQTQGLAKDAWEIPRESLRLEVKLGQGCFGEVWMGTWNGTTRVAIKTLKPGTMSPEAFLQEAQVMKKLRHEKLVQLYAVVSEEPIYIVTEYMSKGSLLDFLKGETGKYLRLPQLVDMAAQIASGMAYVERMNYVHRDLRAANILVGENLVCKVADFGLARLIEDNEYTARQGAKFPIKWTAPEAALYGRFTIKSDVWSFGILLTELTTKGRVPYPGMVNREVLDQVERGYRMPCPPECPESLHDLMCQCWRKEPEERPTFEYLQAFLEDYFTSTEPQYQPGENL
Experimental: as §1

SMILES	IC50 (LCK; read-out: LCK IC50) [nM]	IC50 (c-Src; read-out: c-Src IC50) [nM]	IC50 (LCK) [nM]	IC50 (c-Src) [nM]
Cc1ccc(Nc2ncc3c(n2)N(C)C(=O)N(c2cc(C(=O)N[C@H](C(=O)N4CCC[C@@H]4C(=O)NC4(C(=O)N[C@@H](CC(C)C)C(=O)N(C)C)CC4)C(C)C)ccc2C)C3)cn1 [Example 3, (R)—N-(1-(((S)-1-(dimethylamino)-4-methyl-1-oxopentan-2-yl)carbamoyl)cyclopropyl)-1-((4-methyl-3-(1-methyl-7-((6-methylpyridin-3-yl)amino)-2-oxo-1,4-dihydropyrimido[4,5-d]pyrimidin-3(2H)-yl)benzoyl)-L-valyl)pyrrolidine-2-carboxamide] (X1-V[dP][Ac3c]L-NMe2)	–	–	1 to 200	> 600
Cc1ccc(Nc2ncc3c(n2)N(C)C(=O)N(c2cc(C(=O)N[C@@H](C(=O)N4CCC[C@@H]4C(=O)NC(C)(C)C(=O)N[C@H](CC(C)C)C(=O)N(C)C)C(C)C)ccc2C)C3)cn1 [Example 10, (R)—N-(1-(((R)-1-(dimethylamino)-4-methyl-1-oxopentan-2-yl)amino)-2-methyl-1-oxopropan-2-yl)-1-((4-methyl-3-(1-methyl-7-((6-methylpyridin-3-yl)amino)-2-oxo-1,4-dihydropyrimido[4,5-d]pyrimidin-3(2H)-yl)benzoyl)-D-valyl)pyrrolidine-2-carboxamide] (X1-[dV][dP][Aib][dL]-NMe2)	–	–	200 to 400	> 600
CC1=N[C@@H](CC(C)C)C(=O)N(C)c2cc(C(=O)Nc3ccc(C)c(N4Cc5cnc(Nc6ccc(C)nc6)nc5N(C)C4=O)c3)ccc21 [Example 40, (S)-3-isobutyl-1,5-dimethyl-N-(4-methyl-3-(1-methyl-7-((6-methylpyridin-3-yl)amino)-2-oxo-1,4-dihydropyrimido[4,5-d]pyrimidin-3(2H)-yl)phenyl)-2-oxo-2,3-dihydro-1H-benzo[e][1,4]diazepine-8-carboxamide]	1 to 200	1 to 200	–	–
Cc1ccc(Nc2ncc3c(n2)N(C)C(=O)N(c2cc(NC(=O)c4ccc5c(c4)NC(=O)[C@@H](Cc4ccccc4)N=C5c4ccccc4)ccc2C)C3)cn1 [Example 36, (R)-3-benzyl-N-(4-methyl-3-(1-methyl-7-((6-methylpyridin-3-yl)amino)-2-oxo-1,4-dihydropyrimido[4,5-d]pyrimidin-3(2H)-yl)phenyl)-2-oxo-5-phenyl-2,3-dihydro-1H-benzo[e][1,4]diazepine-8-carboxamide]	1 to 200	1 to 200	–	–
CC1=N[C@@H](CC(C)C)C(=O)N(Cc2ccccc2)c2cc(C(=O)Nc3ccc(C)c(N4Cc5cnc(Nc6ccc(C)nc6)nc5N(C)C4=O)c3)ccc21 [Example 41, (S)-1-benzyl-3-isobutyl-5-methyl-N-(4-methyl-3-(1-methyl-7-((6-methylpyridin-3-yl)amino)-2-oxo-1,4-dihydropyrimido[4,5-d]pyrimidin-3(2H)-yl)phenyl)-2-oxo-2,3-dihydro-1H-benzo[e][1,4]diazepine-8-carboxamide]	1 to 200	1 to 200	–	–

Continued, in another order:

IC50 (LCK; read-out: LCK IC50) [nM]	IC50 (c-Src; read-out: c-Src IC50) [nM]	SMILES	IC50 (LCK) [nM]	IC50 (c-Src) [nM]
1 to 200	400 to 600	Cc1ccc(Nc2ncc3c(n2)N(C)C(=O)N(c2cc(C(=O)N[C@H](C(=O)N4CCCC[C@H]4C(=O)NC(C)(C)C(=O)N[C@@H](CC(C)C)C(=O)N(C)C)C(C)C)ccc2C)C3)cn1 [Example 13, (S)—N-(1-(((S)-1-(dimethylamino)-4-methyl-1-oxopentan-2-yl)amino)-2-methyl-1-oxopropan-2-yl)-1-((4-methyl-3-(1-methyl-7-((6-methylpyridin-3-yl)amino)-2-oxo-1,4-dihydropyrimido[4,5-d]pyrimidin-3(2H)-yl)benzoyl)-L-valyl)piperidine-2-carboxamide] (X1-V[Pip][Aib]L-NMe2)	–	–
1 to 200	1 to 200	Cc1ccc(Nc2ncc3c(n2)N(C)C(=O)N(c2cc(NC(=O)c4ccc5c(c4)NC(=O)[C@H](Cc4ccc(F)cc4)N=C5c4ccccc4)ccc2C)C3)cn1 [Example 28, (S)-3-(4-fluorobenzyl)-N-(4-methyl-3-(1-methyl-7-((6-methylpyridin-3-yl)amino)-2-oxo-1,4-dihydropyrimido[4,5-d]pyrimidin-3(2H)-yl)phenyl)-2-oxo-5-phenyl-2,3-dihydro-1H-benzo[e][1,4]diazepine-8-carboxamide]	–	–
